Here are results for 27 compounds from patent US12581252B2, “Substituted pyrrolo[3,4-b]pyridines as PI3K-α inhibitors” (Relay Therapeutics, Inc., priority 2020, dated 2026).

Chain of H1047R PIK3CA enzyme (P42336 whole entry H1047R): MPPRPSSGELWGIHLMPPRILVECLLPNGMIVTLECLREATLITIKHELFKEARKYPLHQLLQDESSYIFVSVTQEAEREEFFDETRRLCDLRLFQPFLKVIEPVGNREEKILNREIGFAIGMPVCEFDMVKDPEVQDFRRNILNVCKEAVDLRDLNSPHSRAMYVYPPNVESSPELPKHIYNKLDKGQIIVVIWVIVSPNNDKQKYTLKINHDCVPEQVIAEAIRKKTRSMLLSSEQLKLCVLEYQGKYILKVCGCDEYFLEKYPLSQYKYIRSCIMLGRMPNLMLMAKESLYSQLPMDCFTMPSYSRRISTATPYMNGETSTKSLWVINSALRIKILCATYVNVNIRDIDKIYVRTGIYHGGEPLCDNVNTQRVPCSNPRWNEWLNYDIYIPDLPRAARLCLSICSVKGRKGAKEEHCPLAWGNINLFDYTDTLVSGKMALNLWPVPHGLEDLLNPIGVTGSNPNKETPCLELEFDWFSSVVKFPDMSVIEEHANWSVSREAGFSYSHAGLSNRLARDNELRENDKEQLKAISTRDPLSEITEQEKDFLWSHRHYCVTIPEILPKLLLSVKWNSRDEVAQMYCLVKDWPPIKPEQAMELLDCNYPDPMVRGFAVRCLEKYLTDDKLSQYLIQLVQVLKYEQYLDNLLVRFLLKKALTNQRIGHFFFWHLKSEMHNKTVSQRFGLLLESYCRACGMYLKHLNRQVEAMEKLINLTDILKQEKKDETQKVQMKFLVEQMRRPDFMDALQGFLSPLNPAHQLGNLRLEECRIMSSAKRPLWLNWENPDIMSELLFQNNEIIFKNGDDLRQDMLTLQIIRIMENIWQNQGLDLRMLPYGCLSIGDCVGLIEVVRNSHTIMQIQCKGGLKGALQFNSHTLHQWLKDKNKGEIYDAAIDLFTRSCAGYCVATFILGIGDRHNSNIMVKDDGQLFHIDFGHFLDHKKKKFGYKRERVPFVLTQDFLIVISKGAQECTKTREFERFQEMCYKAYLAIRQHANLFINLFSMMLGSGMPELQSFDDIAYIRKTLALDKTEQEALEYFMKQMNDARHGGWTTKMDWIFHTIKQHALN
Chain of H1047R PIK3CA enzyme (P27986 whole entry partner): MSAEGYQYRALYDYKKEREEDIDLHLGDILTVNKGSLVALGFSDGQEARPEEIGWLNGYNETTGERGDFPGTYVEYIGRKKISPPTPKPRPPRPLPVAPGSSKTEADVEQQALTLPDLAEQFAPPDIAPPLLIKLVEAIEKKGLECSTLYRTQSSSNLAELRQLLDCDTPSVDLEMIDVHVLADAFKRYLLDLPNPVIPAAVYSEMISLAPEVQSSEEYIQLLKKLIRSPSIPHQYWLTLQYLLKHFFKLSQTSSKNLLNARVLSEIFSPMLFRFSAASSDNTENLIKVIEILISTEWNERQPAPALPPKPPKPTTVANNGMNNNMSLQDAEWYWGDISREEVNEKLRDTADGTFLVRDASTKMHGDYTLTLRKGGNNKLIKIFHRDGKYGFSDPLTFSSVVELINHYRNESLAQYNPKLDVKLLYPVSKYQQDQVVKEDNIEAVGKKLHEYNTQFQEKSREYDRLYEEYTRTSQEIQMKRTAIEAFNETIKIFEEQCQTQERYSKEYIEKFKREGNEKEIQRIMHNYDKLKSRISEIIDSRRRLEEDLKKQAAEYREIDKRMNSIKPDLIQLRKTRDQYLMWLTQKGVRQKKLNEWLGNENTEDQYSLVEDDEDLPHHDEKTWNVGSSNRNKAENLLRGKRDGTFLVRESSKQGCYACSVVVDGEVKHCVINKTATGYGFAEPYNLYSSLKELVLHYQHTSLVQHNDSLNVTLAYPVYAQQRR

This assay concerns the target H1047R PIK3CA enzyme (Homo sapiens, UniProt P42336, H1047R). Briefly: ADP-Glo Biochemical PIK3CA Kinase Assay.
Regarding `Cc1nc(C)c(-c2cc(NC(=O)c3cc(F)cc(Cl)c3)c3c(n2)C(=O)NC3c2cc(F)ccc2Cl)s1` (stereo not drawn) [Compound I-459], the IC50 (usually the concentration that gives 50% inhibition) was no more than 0.1 µM.

As for `Cc1ncc(-c2cc(NC(=O)c3cc(F)cc(Cl)c3)c3c(n2)C(=O)NC3c2cc(F)ccc2Cl)cn1` (stereo not drawn) [Compound I-460], the IC50 is 0.1 to 0.5 µM.

In turn, `CC(=O)Nc1cc(NC(=O)c2cc(F)cc(C(F)(F)F)c2)c2c(c1)C(=O)N[C@H]2c1cc(F)ccc1Cl` [Compound I-461] had an IC50 of no more than 0.1 µM.

Turning to `CC(=O)Nc1cc(NC(=O)c2cc(F)cc(C(F)(F)F)c2)c2c(c1)C(=O)N[C@@H]2c1cc(F)ccc1Cl` [Compound I-462], the IC50 is 1 to 10 µM.

`Cc1ccccc1C1NC(=O)c2cccc(NC(=O)c3nscc3Br)c21` (stereo not drawn) [Compound I-463] showed an IC50 of 1 to 10 µM.

`Cc1ccccc1C(=O)Nc1cc(Br)cc2c1C(c1cc(F)ccc1Cl)NC2=O` (stereo not drawn) [Compound I-464]: the IC50 was 10 to 100 µM.

With `COc1ccc(C(=O)Nc2cc(Br)cc3c2C(c2cc(F)ccc2Cl)NC3=O)cc1` (stereo not drawn) [Compound I-465], the IC50 lay within 10 to 100 µM.

Compound `O=C(Nc1cc(Br)cc2c1C(c1cc(F)ccc1Cl)NC2=O)c1ccccc1F` (stereo not drawn) [Compound I-466] yielded an IC50 of 10 to 100 µM.

With `O=C(Nc1cc(NC(=O)C(F)F)cc2c1C(c1cc(F)ccc1Cl)NC2=O)c1cc(F)cc(C(F)(F)F)c1` (stereo not drawn) [Compound I-467], the IC50 is no more than 0.1 µM.

As for `O=C(Nc1cc(Br)cc2c1C(c1cc(F)ccc1Cl)NC2=O)c1cc(F)cc(F)c1` (stereo not drawn) [Compound I-468], the IC50 lay in the range of 0.1 to 0.5 µM.

Take `COc1cccc(C(=O)Nc2cc(Br)cc3c2C(c2cc(F)ccc2Cl)NC3=O)c1` (stereo not drawn) [Compound I-469]: the IC50 was in the range of 10 to 100 µM.

As to `O=C(Nc1cc(Br)cc2c1C(c1cc(F)ccc1Cl)NC2=O)c1ccccc1` (stereo not drawn) [Compound I-470], the IC50 lay within 10 to 100 µM.

The compound `COc1ccccc1C(=O)Nc1cc(Br)cc2c1C(c1cc(F)ccc1Cl)NC2=O` (stereo not drawn) [Compound I-471] yielded an IC50 of 10 to 100 µM.

As to `O=C(Nc1cccc2c1C(=O)NS2(=O)=O)c1cc(F)cc(C(F)(F)F)c1` [Compound I-472], the IC50 was 10 to 100 µM.

Compound `Cc1ccccc1C1NC(=O)c2cc(CO)cc(NC(=O)c3cc(F)cc(C(F)(F)F)c3)c21` (stereo not drawn) [Compound I-473] showed an IC50 of no more than 0.1 µM.

The compound `COc1cc(C(=O)Nc2cc(N)cc3c2C(c2cc(F)ccc2C(F)F)NC3=O)cc(F)c1N` (stereo not drawn) [Compound I-474] came in with an IC50 of 10 to 100 µM.

For the compound `Cc1ccccc1C1NC(=O)c2cccc(NC(=O)c3cccc(F)c3)c21` (stereo not drawn) [Compound I-475], the IC50 fell in the range of 1 to 10 µM.

Compound `CN(C)C(=O)Cc1cc(NC(=O)c2cc(F)cc(C(F)(F)F)c2)c2c(c1)C(=O)NC2c1cc(F)ccc1Cl` (stereo not drawn) [Compound I-476] came in with an IC50 of no more than 0.1 µM.

On to `O=C(Nc1cc(Br)cc2c1C(c1cc(F)ccc1Cl)NC2=O)c1ccccc1Cl` (stereo not drawn) [Compound I-477], for which the IC50 was 10 to 100 µM.

`Cc1ccccc1C1NC(=O)c2cccc(-c3cc4c(F)cc(F)cc4[nH]3)c21` (stereo not drawn) [Compound I-479] displayed an IC50 of 1 to 10 µM.

As to `NCc1ncc(NC(=O)c2cc(F)cc(C(F)(F)F)c2)c2c1C(=O)NC2c1cc(F)ccc1Cl` (stereo not drawn) [Compound I-480], the 50% inhibitory concentration (IC50) lay within 0.5 to 1 µM.

For `O=C1NC(c2cc(F)ccc2Cl)c2c(NC(=O)N3CCCC3)cc(Br)cc21` (stereo not drawn) [Compound I-481], the IC50 was 10 to 100 µM.

Take `O=C1NC(c2cc(F)ccc2Cl)c2c(NC(=O)N3CCC(F)(F)C3)cc(Br)cc21` (stereo not drawn) [Compound I-482]: the IC50 was in the range of 1 to 10 µM.

`O=C(Nc1cc(OS(=O)(=O)F)cc2c1C(c1cc(F)ccc1Cl)NC2=O)c1cc(F)cc(C(F)(F)F)c1` (stereo not drawn) [Compound I-483] gave an IC50 of no more than 0.1 µM.

As for `O=C(Nc1cc(C(O)(O)C(F)(F)F)cc2c1C(c1cc(F)ccc1Cl)NC2=O)c1cc(F)cc(C(F)(F)F)c1` (stereo not drawn) [Compound I-484], the IC50 is 0.1 to 0.5 µM.

In turn, `N#Cc1ccc(Cl)c(C2NC(=O)c3cccc(NC(=O)c4cc(F)cc(C(F)(F)F)c4)c32)c1` (stereo not drawn) [Compound I-485] showed an IC50 of 10 to 100 µM.

`O=C(Nc1cccc2c1C(c1cc(-c3ccccc3)ccc1Cl)NC2=O)c1cc(F)cc(C(F)(F)F)c1` (stereo not drawn) [Compound I-486] gave an IC50 of 1 to 10 µM.
